{"source": "patent US10278950B2", "about": "“Therapeutic agents containing cannabis flavonoid derivative for ocular disorders” (priority 2015, dated 2019)", "data": [{"target": "T1, BIKE (BMP2K) kinase (Homo sapiens, UniProt Q9NSY1)", "T1 construct": "made in house", "T1 sequence (Q9NSY1 whole entry)": "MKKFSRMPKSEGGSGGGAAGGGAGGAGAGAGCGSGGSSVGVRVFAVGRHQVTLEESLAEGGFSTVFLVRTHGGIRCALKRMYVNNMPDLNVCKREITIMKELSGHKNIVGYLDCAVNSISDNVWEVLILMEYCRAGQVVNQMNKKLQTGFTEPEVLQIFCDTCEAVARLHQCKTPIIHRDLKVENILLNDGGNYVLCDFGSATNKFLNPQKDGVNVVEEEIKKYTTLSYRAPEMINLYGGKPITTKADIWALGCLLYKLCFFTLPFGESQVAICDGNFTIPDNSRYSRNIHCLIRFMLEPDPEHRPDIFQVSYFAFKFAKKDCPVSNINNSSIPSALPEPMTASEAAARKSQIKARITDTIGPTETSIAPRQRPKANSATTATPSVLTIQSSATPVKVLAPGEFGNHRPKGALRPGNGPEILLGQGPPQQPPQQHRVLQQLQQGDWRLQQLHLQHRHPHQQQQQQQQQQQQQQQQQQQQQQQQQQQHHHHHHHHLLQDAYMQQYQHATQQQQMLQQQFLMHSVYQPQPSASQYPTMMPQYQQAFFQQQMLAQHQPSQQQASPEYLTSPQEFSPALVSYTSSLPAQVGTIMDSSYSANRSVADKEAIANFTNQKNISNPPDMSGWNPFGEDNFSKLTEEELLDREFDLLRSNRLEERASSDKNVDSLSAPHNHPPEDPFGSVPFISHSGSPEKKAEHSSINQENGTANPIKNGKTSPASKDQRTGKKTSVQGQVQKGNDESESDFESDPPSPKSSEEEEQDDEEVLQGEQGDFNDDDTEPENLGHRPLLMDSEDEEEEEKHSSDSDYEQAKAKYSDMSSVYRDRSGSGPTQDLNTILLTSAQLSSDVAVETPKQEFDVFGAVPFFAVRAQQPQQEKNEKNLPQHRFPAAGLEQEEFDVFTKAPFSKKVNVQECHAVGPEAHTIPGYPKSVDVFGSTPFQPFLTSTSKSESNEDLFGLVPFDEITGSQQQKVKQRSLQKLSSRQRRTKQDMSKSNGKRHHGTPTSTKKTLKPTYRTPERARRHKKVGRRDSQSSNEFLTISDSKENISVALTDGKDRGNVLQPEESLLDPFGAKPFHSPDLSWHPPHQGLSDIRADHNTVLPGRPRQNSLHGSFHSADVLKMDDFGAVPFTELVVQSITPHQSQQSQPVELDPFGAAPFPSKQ", "assay": "Kinase inhibition assay (competition binding assay)", "settings": "qualitative statement; dose response curve only in FIG. 3, no values given", "protocol": "Cannabis flavonoids and their analogs were subjected to kinase inhibition assay. The compounds were first screened at a single concentration of 10 μM in the primary assay. Compounds inhibiting at least 70% of specific kinases were subjected to further screening to determine kd values. To determine the kd values, competition binding assays were established, authenticated and executed as described previously (Fabian et al., 2005, Karaman et al., 2008). For most assays, kinases were fused to T7 phage strains (Fabian et al. 2005) and for the other assays, kinases were produced in HEK-293 cells after which they were tagged with DNA for quantitative PCR detection (data not shown). In general, full-length constructs were used for small, single domain kinases, and catalytic domain constructs for large multi-domain kinases. The binding assays utilized streptavidin-coated magnetic beads treated with biotinylated small molecule ligands for 30 minutes at room temperature which generated affinity resins for the kinase assays. The liganded beads were blocked with excess biotin and washed with blocking buffer (SeaBlock (Pierce), 1% BSA, 0.05% Tween 20, 1 mM DTT) to remove unbound ligand and to reduce non-specific phage binding. Binding reactions were assembled by combining kinases, liganded affinity beads, and test compounds in 1× binding buffer (20% SeaBlock, 0.17×PBS, 0.05% Tween 20, 6 mM DTT). Test compounds were prepared as 40× stocks in 100% DMSO and diluted directly into the assay (Final DMSO concentration=2.5%). All reactions were performed in polypropylene 384-well plates in a final volume of 0.04 ml. The assay plates were incubated at room temperature with shaking for 1 hour and the affinity beads were washed with wash buffer (1×PBS, 0.05% Tween 20). The beads were then re-suspended in elution buffer (1×PBS, 0.05% Tween 20, 0.5 μM non-biotinylated affinity ligand) and incubated at room temperature with shaking for 30 minutes. The kinase concentration in the eluates was measured by quantitative PCR. Kd values were determined using a standard dose response curve using the hill equation. Curves were fitted using a non-linear least square fit with the Levenberg-Marquardt algorithm.", "values": [{"compound": "COc1cc(-c2cc(=O)c3c(O)c(C/C=C(\\C)CCC=C(C)C)c(O)cc3o2)ccc1O", "note": "[cannflavin A]", "ability to inhibit the BMP2K kinase": "demonstrated ability to inhibit"}, {"compound": "COc1cc(-c2cc(=O)c3c(O)cc(O)c(CC=C(C)C)c3o2)ccc1O", "note": "[isocannflavin B]", "ability to inhibit the BMP2K kinase": "demonstrated ability to inhibit"}, {"compound": "COc1cc(-c2cc(=O)c3c(O)c(CC=C(C)C)c(O)cc3o2)ccc1O", "note": "[cannflavin B]", "ability to inhibit the BMP2K kinase": "demonstrated ability to inhibit"}, {"compound": "COc1cc(-c2cc(=O)c3c(O)cc(O)c(C/C=C(\\C)CCC=C(C)C)c3o2)ccc1O", "note": "[cannflavin C]", "ability to inhibit the BMP2K kinase": "demonstrated ability to inhibit"}]}]}
